Residues, ends and D or L forms follow the SMILES beside them.
Columns and labels:
Orexin receptor type 2 = target: T1, Orexin receptor type 2 (Homo sapiens, UniProt O43614); experiment: Effective agonist concentration to the human Orexin receptor type 2 was determined using the Xlfit program; type: functional
T1 sequence (O43614 whole entry): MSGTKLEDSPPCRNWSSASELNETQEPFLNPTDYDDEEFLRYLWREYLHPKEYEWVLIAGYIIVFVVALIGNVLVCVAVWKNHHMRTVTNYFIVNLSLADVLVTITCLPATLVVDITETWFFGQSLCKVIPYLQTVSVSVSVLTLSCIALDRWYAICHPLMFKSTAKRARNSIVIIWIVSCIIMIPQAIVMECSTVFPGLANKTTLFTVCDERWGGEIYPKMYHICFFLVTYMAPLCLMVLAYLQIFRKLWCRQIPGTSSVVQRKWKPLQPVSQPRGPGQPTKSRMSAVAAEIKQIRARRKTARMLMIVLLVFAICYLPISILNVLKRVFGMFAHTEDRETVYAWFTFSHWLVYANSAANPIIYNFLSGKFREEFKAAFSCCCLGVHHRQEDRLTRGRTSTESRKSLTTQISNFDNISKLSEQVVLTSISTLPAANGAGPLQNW

[1] = Ratio of orexin-1 receptor to orexin-2 receptor in human

CC[C@H](C)[C@H](NC(=O)CNC(=O)[C@H](C)NC(=O)[C@H](C)NC(=O)[C@H](Cc1c[nH]cn1)NC(=O)[C@H](CC(N)=O)NC(=O)CNC(=O)[C@H](C)NC(=O)CNC(=O)[C@H](Cc1c[nH]cn1)NC(=O)[C@H](CC(C)C)NC(=O)[C@H](CC(C)C)NC(=O)[C@H](CCC(=O)O)NC(=O)[C@H](Cc1ccc(O)cc1)NC(=O)[C@H](CC(C)C)NC(=O)[C@H](CCCN=C(N)N)NC(=O)[C@H](CS)NC(=O)[C@H](CO)NC(=O)[C@H](CS)NC(=O)[C@@H](NC(=O)[C@H](CCCCN)NC(=O)[C@H](CCC(N)=O)NC(=O)[C@H](CCCN=C(N)N)NC(=O)[C@H](CS)NC(=O)[C@@H](N)CS)[C@@H](C)O)C(=O)N[C@@H](CC(C)C)C(=O)N[C@H](C(=O)N[C@@H](CC(C)C)C(=O)O)[C@@H](C)O (H-CCRQKTCSCRLYELLHGAGNHAAGILTL-OH)
EC50 (Orexin receptor type 2): 790 nM | Ratio [1]: 1

CC[C@H](C)[C@H](NC(=O)CNC(=O)[C@H](C)NC(=O)[C@H](C)NC(=O)[C@H](Cc1c[nH]cn1)NC(=O)[C@H](CC(N)=O)NC(=O)CNC(=O)[C@H](CO)NC(=O)[C@H](C)NC(=O)[C@H](CCC(N)=O)NC(=O)[C@H](CC(C)C)NC(=O)[C@H](CC(C)C)NC(=O)[C@H](CCCN=C(N)N)NC(=O)[C@H](CCC(N)=O)NC(=O)[C@H](CC(C)C)NC(=O)[C@H](CCCN=C(N)N)NC(=O)CNC(=O)[C@H](CCC(N)=O)NC(=O)[C@H](C)NC(=O)CN)C(=O)N[C@@H](CC(C)C)C(=O)N[C@H](C(=O)N[C@@H](CCSC)C(=O)O)[C@@H](C)O (H-GAQGRLQRLLQASGNHAAGILTM-OH)
EC50 (Orexin receptor type 2): 830 nM | Ratio [1]: 8.9

CC[C@H](C)[C@H](NC(=O)CNC(=O)[C@H](C)NC(=O)[C@H](C)NC(=O)[C@H](Cc1c[nH]cn1)NC(=O)[C@H](CC(N)=O)NC(=O)CNC(=O)[C@H](CO)NC(=O)[C@H](C)NC(=O)[C@H](CCC(N)=O)NC(=O)[C@H](CC(C)C)NC(=O)[C@H](CC(C)C)NC(=O)[C@H](CCCN=C(N)N)NC(=O)[C@H](CCC(N)=O)NC(=O)[C@H](CC(C)C)NC(=O)[C@H](CCCN=C(N)N)NC(=O)CNC(=O)[C@@H]1CCCN1C(=O)[C@H](CC(C)C)NC(=O)CN)C(=O)N[C@@H](CC(C)C)C(=O)N[C@H](C(=O)N[C@@H](CCSC)C(=O)O)[C@@H](C)O (H-GLPGRLQRLLQASGNHAAGILTM-OH)
EC50 (Orexin receptor type 2): 160 nM | Ratio [1]: 7.5

CC[C@H](C)[C@H](NC(=O)CNC(=O)[C@H](C)NC(=O)[C@H](C)NC(=O)[C@H](Cc1c[nH]cn1)NC(=O)[C@H](CC(N)=O)NC(=O)CNC(=O)[C@H](CO)NC(=O)[C@H](C)NC(=O)[C@H](CCC(N)=O)NC(=O)[C@H](CC(C)C)NC(=O)[C@H](CC(C)C)NC(=O)[C@H](CCCN=C(N)N)NC(=O)[C@H](CCC(N)=O)NC(=O)[C@H](CC(C)C)NC(=O)[C@H](CCCN=C(N)N)NC(=O)[C@H](C)NC(=O)[C@H](CCC(N)=O)NC(=O)[C@H](CC(C)C)NC(=O)CN)C(=O)N[C@@H](CC(C)C)C(=O)N[C@H](C(=O)N[C@@H](CCSC)C(=O)O)[C@@H](C)O (H-GLQARLQRLLQASGNHAAGILTM-OH)
EC50 (Orexin receptor type 2): 210 nM | Ratio [1]: 11

CC[C@H](C)[C@H](NC(=O)CNC(=O)[C@H](C)NC(=O)[C@H](C)NC(=O)[C@H](Cc1c[nH]cn1)NC(=O)[C@H](CC(N)=O)NC(=O)CNC(=O)[C@H](CO)NC(=O)[C@H](C)NC(=O)[C@H](CCC(N)=O)NC(=O)[C@H](CC(C)C)NC(=O)[C@H](CC(C)C)NC(=O)[C@H](CCCN=C(N)N)NC(=O)[C@H](CCC(N)=O)NC(=O)[C@H](CC(C)C)NC(=O)[C@H](CCCN=C(N)N)NC(=O)[C@@H]1CCCN1C(=O)[C@H](CCC(N)=O)NC(=O)[C@H](CC(C)C)NC(=O)CN)C(=O)N[C@@H](CC(C)C)C(=O)N[C@H](C(=O)N[C@@H](CCSC)C(=O)O)[C@@H](C)O (H-GLQPRLQRLLQASGNHAAGILTM-OH)
EC50 (Orexin receptor type 2): 190 nM | Ratio [1]: 23.5

CC[C@H](C)[C@H](NC(=O)CNC(=O)[C@H](C)NC(=O)[C@H](C)NC(=O)[C@H](Cc1c[nH]cn1)NC(=O)[C@H](CC(N)=O)NC(=O)CNC(=O)[C@H](C)NC(=O)CNC(=O)[C@H](Cc1c[nH]cn1)NC(=O)[C@H](CC(C)C)NC(=O)[C@H](CC(C)C)NC(=O)[C@H](CCC(=O)O)NC(=O)[C@H](Cc1ccc(O)cc1)NC(=O)[C@H](CC(C)C)NC(=O)[C@H](CCCN=C(N)N)NC(=O)[C@H](CS)NC(=O)[C@H](CO)NC(=O)[C@H](CS)NC(=O)[C@@H](NC(=O)[C@H](CCCCN)NC(=O)[C@H](CCC(N)=O)NC(=O)[C@H](CCCN=C(N)N)NC(=O)[C@H](CS)NC(=O)[C@H](CS)NC(=O)[C@H](CC(=O)O)NC(=O)[C@@H]1CCCN1)[C@@H](C)O)C(=O)N[C@@H](CC(C)C)C(=O)N[C@H](C(=O)N[C@@H](CC(C)C)C(=O)O)[C@@H](C)O (H-PDCCRQKTCSCRLYELLHGAGNHAAGILTL-OH)
EC50 (Orexin receptor type 2): 400 nM | Ratio [1]: 1.6

CC[C@H](C)[C@H](NC(=O)CNC(=O)[C@H](C)NC(=O)[C@H](C)NC(=O)[C@H](Cc1c[nH]cn1)NC(=O)[C@H](CC(N)=O)NC(=O)CNC(=O)[C@H](C)NC(=O)CNC(=O)[C@H](Cc1c[nH]cn1)NC(=O)[C@H](CC(C)C)NC(=O)[C@H](CC(C)C)NC(=O)[C@H](CCC(=O)O)NC(=O)[C@H](Cc1ccc(O)cc1)NC(=O)[C@H](CC(C)C)NC(=O)[C@@H](N)CCCN=C(N)N)C(=O)N[C@@H](CC(C)C)C(=O)N[C@H](C(=O)N[C@@H](CC(C)C)C(=O)O)[C@@H](C)O (H-RLYELLHGAGNHAAGILTL-OH)
Ratio [1]: 4.3

CC[C@H](C)[C@H](NC(=O)CNC(=O)[C@H](C)NC(=O)[C@H](C)NC(=O)[C@H](Cc1c[nH]cn1)NC(=O)[C@H](CC(N)=O)NC(=O)CNC(=O)[C@H](C)NC(=O)CNC(=O)[C@H](Cc1c[nH]cn1)NC(=O)[C@H](CC(C)C)NC(=O)[C@H](CC(C)C)NC(=O)[C@H](CCC(=O)O)NC(=O)[C@H](Cc1ccc(O)cc1)NC(=O)[C@H](CC(C)C)NC(=O)[C@H](CCCN=C(N)N)NC(=O)[C@H](CS)NC(=O)[C@H](CO)NC(=O)[C@H](CS)NC(=O)[C@@H](NC(=O)[C@H](CCCCN)NC(=O)[C@H](CCC(N)=O)NC(=O)[C@@H](N)CCCN=C(N)N)[C@@H](C)O)C(=O)N[C@@H](CC(C)C)C(=O)N[C@H](C(=O)N[C@@H](CC(C)C)C(=O)O)[C@@H](C)O (H-RQKTCSCRLYELLHGAGNHAAGILTL-OH)
Ratio [1]: 2.3

CC[C@H](C)[C@H](NC(=O)CNC(=O)[C@H](C)NC(=O)[C@H](C)NC(=O)[C@H](Cc1c[nH]cn1)NC(=O)[C@H](CC(N)=O)NC(=O)CNC(=O)[C@H](C)NC(=O)CNC(=O)[C@H](Cc1c[nH]cn1)NC(=O)[C@H](CC(C)C)NC(=O)[C@H](CC(C)C)NC(=O)[C@H](CCC(=O)O)NC(=O)[C@H](Cc1ccc(O)cc1)NC(=O)[C@H](CC(C)C)NC(=O)[C@H](CCCN=C(N)N)NC(=O)[C@H](CS)NC(=O)[C@@H](N)CO)C(=O)N[C@@H](CC(C)C)C(=O)N[C@H](C(=O)N[C@@H](CC(C)C)C(=O)O)[C@@H](C)O (H-SCRLYELLHGAGNHAAGILTL-OH)
Ratio [1]: 2.3

CC[C@H](C)[C@H](NC(=O)CNC(=O)[C@H](C)NC(=O)[C@H](C)NC(=O)[C@H](Cc1c[nH]cn1)NC(=O)[C@H](CC(N)=O)NC(=O)CNC(=O)[C@H](C)NC(=O)CNC(=O)[C@H](Cc1c[nH]cn1)NC(=O)[C@H](CC(C)C)NC(=O)[C@H](CC(C)C)NC(=O)[C@H](CCC(=O)O)NC(=O)[C@H](Cc1ccc(O)cc1)NC(=O)[C@H](CC(C)C)NC(=O)[C@H](CCCN=C(N)N)NC(=O)[C@H](CS)NC(=O)[C@H](CO)NC(=O)[C@H](CS)NC(=O)[C@@H](N)[C@@H](C)O)C(=O)N[C@@H](CC(C)C)C(=O)N[C@H](C(=O)N[C@@H](CC(C)C)C(=O)O)[C@@H](C)O (H-TCSCRLYELLHGAGNHAAGILTL-OH)
Ratio [1]: 3.2

CC[C@H](C)[C@H](NC(=O)CNC(=O)[C@H](C)NC(=O)[C@H](C)NC(=O)[C@H](Cc1c[nH]cn1)NC(=O)[C@H](CC(N)=O)NC(=O)CNC(=O)[C@H](CO)NC(=O)[C@H](C)NC(=O)[C@H](CCC(N)=O)NC(=O)[C@H](CC(C)C)NC(=O)[C@H](CC(C)C)NC(=O)[C@H](CCCN=C(N)N)NC(=O)[C@@H]1CCCN1C(=O)[C@H](CC(C)C)NC(=O)[C@H](CCCN=C(N)N)NC(=O)CNC(=O)[C@H](CCC(N)=O)NC(=O)[C@H](CC(C)C)NC(=O)CN)C(=O)N[C@@H](CC(C)C)C(=O)N[C@H](C(=O)N[C@@H](CCSC)C(=O)O)[C@@H](C)O (stereo in doubt; form 1)
Ratio [1]: 18.8

CC[C@H](C)[C@H](NC(=O)CNC(=O)[C@H](C)NC(=O)[C@H](C)NC(=O)[C@H](Cc1c[nH]cn1)NC(=O)[C@H](C)NC(=O)CNC(=O)[C@H](CO)NC(=O)[C@H](C)NC(=O)[C@H](CCC(N)=O)NC(=O)[C@H](CC(C)C)NC(=O)[C@H](CC(C)C)NC(=O)[C@H](CCCN=C(N)N)NC(=O)[C@H](CCC(N)=O)NC(=O)[C@H](CC(C)C)NC(=O)[C@H](CCCN=C(N)N)NC(=O)CNC(=O)[C@H](CCC(N)=O)NC(=O)[C@H](CC(C)C)NC(=O)CN)C(=O)N[C@@H](CC(C)C)C(=O)N[C@H](C(=O)N[C@@H](CCSC)C(=O)O)[C@@H](C)O (stereo in doubt; form 2)
Ratio [1]: 6.8

CC[C@H](C)[C@H](NC(=O)CNC(=O)[C@H](C)NC(=O)[C@H](C)NC(=O)[C@H](Cc1c[nH]cn1)NC(=O)[C@H](CC(N)=O)NC(=O)CNC(=O)[C@H](CO)NC(=O)[C@H](C)NC(=O)[C@H](CCC(N)=O)NC(=O)[C@H](CC(C)C)NC(=O)[C@H](CC(C)C)NC(=O)[C@H](CCCN=C(N)N)NC(=O)[C@@H]1CCCN1C(=O)[C@H](CC(C)C)NC(=O)[C@H](CCCN=C(N)N)NC(=O)CNC(=O)[C@H](CCC(N)=O)NC(=O)[C@H](CC(C)C)NC(=O)CN)C(=O)N[C@@H](CC(C)C)C(=O)N[C@H](C(=O)N[C@@H](CCSC)C(=O)O)[C@@H](C)O (stereo in doubt; form 2)
Ratio [1]: 15

From ChEMBL document CHEMBL1148480, “Structure-activity studies of orexin a and orexin B at the human orexin 1 and orexin 2 receptors led to orexin 2 receptor selective and orexin 1 receptor preferring ligands” (J Med Chem, 2004)
